For orientation: MIC means the smallest concentration in the dilution series that meets the test's criterion for growth inhibition.

MIC data for one molecule are collected here from US6346260B1, “Microbicidal active ingredients” (Ciba Specialty Chemicals Corporation, priority 1999, dated 2002).

Format in all cases: cell-based
Experiment [1] relates to Corynebacterium xerosis ATCC 373. Put plainly: MIC in microtitre plates, Corynebacterium xerosis. To be noted: ATCC373, Table 1, 48 hours at 37° C., ≦20% growth. The protocol:
Determination of Antimicrobial Activity in Accordance with the Microtitre Plate Method Determination of the Minimum Inhibitory Concentration (MIC value) in Microtitre Plates casein-soybean flour-peptone bouillon for the preparation of the precultures of the test bacteria and yeast. Corynebacterium xerosis ATCC 373 The test substances are predissolved in dimethyl sulfoxide (DMSO) and tested in a dilution series of 1:2. Bacteria and yeast are cultured overnight in CASO bouillon, the mould on mycological slant agar and rinsed off with 10 ml of 0.85% sodium chloride solution (+0.1% TritonX-100). All test organisms are adjusted to an organism count of 1-5*10^6 CFU/ml with 0.85% sodium chloride solution. The test substances are prepipetted into microtitre plates in an amount of 8 μl per well. Previously diluted test organism suspensions are diluted 1:100 in CASO bouillon (bacteria and yeast) and Sabouraud 2% glucose bouillon (mould) and added to the test substances in an amount of 192 μl per well. The test batches are incubated for 48 hours at 37° C. (bacteria and yeast) or for 5 days at 28° C. (mould). After incubation, the growth is determined by reference to the turbidity of the test batches (optical density) at 620 nm in a microplate reader. […]

In experiment [2] the test system is Escherichia coli NCTC 8196. Put plainly: MIC in microtitre plates, Escherichia coli. The following applies: Escherichia coli, NCTC8196; Table 1; NCTC 8196; 48 hours at 37° C.; ≦20% growth; read-out: MIC Escherichia coli. The protocol: (§1) Determination of Antimicrobial Activity in Accordance with the Microtitre Plate Method Determination of the Minimum Inhibitory Concentration (MIC value) in Microtitre Plates casein-soybean flour-peptone bouillon for the preparation of the precultures of the test bacteria and yeast. Escherichia coli NCTC 8196 The test substances are predissolved in dimethyl sulfoxide (DMSO) and tested in a dilution series of 1:2. Bacteria and yeast are cultured overnight in CASO bouillon, the mould on mycological slant agar and rinsed off with 10 ml of 0.85% sodium chloride solution (+0.1% TritonX-100). All test organisms are adjusted to an organism count of 1-5*10^6 CFU/ml with 0.85% sodium chloride solution. The test substances are prepipetted into microtitre plates in an amount of 8 μl per well. Previously diluted test organism suspensions are diluted 1:100 in CASO bouillon (bacteria and yeast) and Sabouraud 2% glucose bouillon (mould) and added to the test substances in an amount of 192 μl per well. The test batches are incubated for 48 hours at 37° C. (bacteria and yeast) or for 5 days at 28° C. (mould). After incubation, the growth is determined by reference to the turbidity of the test batches (optical density) at 620 nm in a microplate reader. The minimum inhibitory concentration (MIC value) is the concentration of substance at which (compared with the growth of the control) an appreciable inhibition of the growth (≦20% growth) of the test organisms is ascertained. One microtitre plate is used for each test organism and substance concentration. All substances are tested in duplicate.

Experiment [3] concerns Candida albicans ATCC 10231. Put plainly: MIC in microtitre plates, Candida albicans. To be noted: Candida albicans, ATCC10231; Table 1; ATCC 10231; 48 hours at 37° C.; ≦20% growth; read-out: MIC Candida albicans. The protocol: as §1, with “Candida albicans ATCC 10231” for “Escherichia coli NCTC 8196”
For experiment [4], the system named is Aspergillus niger ATCC 6275. Put plainly: MIC in microtitre plates, Aspergillus niger. The following applies: Aspergillus niger, ATCC6275, 120 h; Table 1; ATCC 6275; 5 days at 28° C.; ≦20% growth; read-out: MIC Aspergillus niger. As to the method: as §1, with “Mycological slant agar” for “casein-soybean flour-peptone bouillon”, “preculture” for “preparation”, “moulds. Aspergillus niger ATCC 6275” for “the precultures of the test bacteria and yeast. Escherichia coli NCTC 8196”

As for `O=C(CC(=O)c1ccccc1O)c1ccco1` [Compound of formula (101)], the MIC in experiment [1] was 50 µg/mL; in experiment [2], 50 µg/mL; in experiment [3] it was 100 to 500 µg/mL; in experiment [4], 100 µg/mL.
